Literature values, collected in US9827197B2, “Diclofenac formulations and methods of use” (APR Applied Pharma Research s.a., priority 2005, dated 2017).

Tests used:
[1] = commercially available sugar coated tablets
[2] = water at 25 degrees Celsius

terminal half life [1]	solubility in water [2] [g/100 ml]	Structure (SMILES)
about 1.9 hours	–	O=C(O)Cc1ccccc1Nc1c(Cl)cccc1Cl [Diclofenac potassium]
–	22	OC[C@@H](O)[C@@H](O)[C@H](O)[C@H](O)CO [mannitol]
